For assay [1], the system named is KPCN349 cells co-cultured with CAFs. Description: Trogocytosis assay in vitro by flow cytometry (CAF membrane uptake by PDAC cells). The class given is cell-based, murine. The conditions noted are these: 100 nM, CAFs pre-treated 2 hours and maintained in co-culture, vs vehicle, p<0.05. Here is the method: To label cellular membranes, pairs of lipophilic fluorescent dyes were used according to the manufacturer's instructions in the following combinations: 1) adherent CAFs were stained 1 μM PKH67 (Sigma-Aldrich), Panc-1 were stained in suspension with 10 μM CellTracker™ orange CMTMR (Thermo Fisher Scientific); 2) CAFs labeled with 0.5 μM BODIPY-cholesterol (Topfluor Cholesterol, #DO-016545, Avanti Polar Lipids) dissolved in 0.1 mM methyl-b-cyclodextrin (#C4555, Sigma) with 2 μM cholesterol (#C8667, Sigma-Aldrich) in MEM media at 37° C. for 30 minutes in suspension; murine or human (Panc-1) PDAC cells were stained in suspension with CPD670 (#65-0840-85, Thermo Fisher Scientific). After labeling, CAFs were co-incubated for indicated time intervals with PDAC cells in 12-well culture plates at ratio of 2:1 in half DMEM media. Co-cultures of CAFs and PDAC cells for 3 minutes on ice were used as negative controls. In experiments assessing the effect of extracellular calcium on trogocytoisis, cells were co-cultured in Phosphate Buffered Saline (PBS) containing calcium and magnesium (D8662, Sigma-Aldrich) or in PBS without calcium and magnesium (D8537, Sigma-Aldrich). After co-cultures, cells were collected and pelleted by centrifugation (5 minutes, 1500 rpm), resuspended in 10% formalin (Sigma) for 10 minutes at RT, washed and re-suspended in PBS/1% BSA. Trogocytosis was measured as the acquisition of CAF-specific fluorescence in PDAC cells by flow cytometry on MACSQuant® VYB Flow Cytometer (Miltenyi Biotec) or FACScan analyzer (BD Biosciences). Analysis of dual staining was done using FlowJo software (10.8.1, BD Biosciences). Live cells were gated based on FSC/SSC parameters, then single cells were gated based on SSC-A/SSC-H.
For interference with trogocytosis, CAFs were pre-treated prior to co-cultures for 2 hours with recombinant label-free 100 nM Annexin-V (#ab157342, Abcam) or 100 nM Zn-DPA (Molecular Targeting Technologies) and subsequently maintained in co-cultures at the same concentrations.
(A flow cytometer gives signals particle by particle.)

In assay [2] the test system is KPC3 syngeneic pancreatic tumor grafts. Briefly: Treatment of orthotopic syngeneic KPC3 pancreatic tumors with oral ANO6 inhibitors. The conditions noted are these: oral gavage 5 days/week for 3 weeks; niclosamide 150 mg/kg, clofazimine 50 mg/kg; vs vehicle, p<0.001. The class given is in vivo, C57Bl/6J mice. Here is the method:
(§1) Syngeneic 5×10^5 KPC3 cells were orthotopically injected to the tail of pancreas of anesthetized C57Bl/6J mice. Treatment with ANO6 inhibitors niclosamide or clofazimine commenced on 2 days post-implantation: niclosamide (150 mg/kg of mouse body weight, Cayman #10649), clofazimine (50 mg/kg, MedChem Express), or corn oil (50 mg/kg, Sigma #C8267) as vehicle were given by oral gavages 5 days/week for 3 weeks. Mice were kept under defined-flora pathogen-free conditions. Mice of both genders, equally distributed, were used for the experiments.

The subject of the next assay is DsRed-tagged KPC3 tumors. Briefly: In vivo fluorescent LDL (BODIPY-cholesterol) imaging by multiphoton microscopy. Also on record: species or system mice. Here is the method: as §1

“Also recorded” adds a separate entry of the source.

The record followed here is patent US20240122922A1, “Methods Of Treating Cancer With Transmembrane Protein 16F (TMEM16F) Inhibitors” (Institute For Cancer Research d/b/a The Research Institute …, priority 2022, published 2024).

In the case of `[Zn].c1ccc(CNCc2ccccn2)nc1` [Zn-DPA, zinc-dipicolylamine], the “uptake of BODIPY-labeled CAF membranes by KPCN349 cells” value in assay [1] is given as “significantly reduced the uptake”; in assay [1] (listed as bis-Zn-dipicolylamine), “antagonizes uptake”.

`CC(C)/N=c1\cc2n(-c3ccc(Cl)cc3)c3ccccc3nc-2cc1Nc1ccc(Cl)cc1` [clofazimine]: in assay [2], the “weights of orthotopic syngeneic pancreatic tumors” value is reported as “significant reduction of tumor weights”.

Consider `O=C(Nc1ccc([N+](=O)[O-])cc1Cl)c1cc(Cl)ccc1O` [niclosamide], for which the “weights of orthotopic syngeneic pancreatic tumors” value in assay [2] is reported as “significant reduction of tumor weights”. The “accumulation of intratumoral vesicles containing BODIPY-cholesterol” value in the assay with DsRed-tagged KPC3 tumors (19 hours post injection, niclosamide vs vehicle) was “dramatically reduced”. Besides, the “accumulation of BODIPY-cholesterol from intravenously administered LDL in DsRed-tagged KPC3 cancer cells (intratumoral to peri-tumoral fluorescence)” value in the assay on DsRed-tagged KPC3 tumors (niclosamide 150 mg/kg/day, 10, 16 and 19 hours post injection, vehicle tumors showed 6-fold enrichment at 16 hours) is reported as “suppressed accumulation”.

B1: annexin V: recombinant label-free Annexin-V (#ab157342, Abcam) masking cell surface phosphatidylserine (protein, UniProt P08758 2-320, looked up)
Annexin A5: AQVLRGTVTDFPGFDERADAETLRKAMKGLGTDEESILTLLTSRSNAQRQEISAAFKTLFGRDLLDDLKSELTGKFEKLIVALMKPSRLYDAYELKHALKGAGTNEKVLTEIIASRTPEELRAIKQVYEEEYGSSLEDDVVGDTSGYYQRMLVVLLQANRDPDAGIDEAQVEQDAQALFQAGELKWGTDEEKFITIFGTRSVSHLRKVFDKYMTISGFQIEETIDRETSGNLEQLLLAVVKSIRSIPAYLAETLYYAMKGAGTDDHTLIRVMVSRSEIDLFNIRKEFRKNFATSLYSMIKGDTSGDYKKALLLLCGEDD
Consider B1, for which, in assay [1], the “uptake of BODIPY-labeled CAF membranes by KPCN349 cells” value was “significantly reduced the uptake; also recorded: antagonizes uptake”.
